From US11780841B2, “3,6-methano-1H-pyrrolo[3,2-b]pyridine and 3,6-methano-1H-pyrrolo[3,2-c]pyridine compounds and medicaments using same” (priority 2018, dated 2023)
Where two headings read alike, the source gives them in different places.

Tested on: recombinant rabies virus 1088 strain expressing Gaussia Luciferase (GLuc) (1088/GLuc)
Assay type: cell-based

Structure (SMILES) | IC50 (read-out: Anti-rabies activity) | IC50 (read-out: IC50)
CC(C)CCNC(=O)[C@@]12C[C@@H]3CN(CCO)[C@@H]([C@@H]3CN1)[C@H]2Cc1ccccc1 [IF-656] | 10 to 30 µM | 
CCCCCCNC(=O)[C@@]12C[C@@H]3CN(CCc4ccccc4)[C@@H]([C@@H]3CN1)[C@H]2Cc1ccccc1 (relative stereo) [IF-602] | 10 to 30 µM | 
N=C(N)NCCCNC(=O)[C@@]12C[C@@H]3CN(Cc4cccc5ccccc45)[C@@H]([C@@H]3CN1)[C@H]2CCc1ccccc1 [IF-389] | < 5 µM | 
CCCCCCNC(=O)[C@]12NC[C@H]3C[C@H]1CN(CCO)[C@H]2[C@@H]3Cc1ccccc1 [IB-476] | < 5 µM | 
NC(=O)CN1C[C@@H]2C[C@@H]3CN[C@]2(C(=O)NCc2ccc(F)cc2)[C@@H]1[C@@H]3Cc1ccccc1 [IB-92] | 10 to 30 µM | 
CC(C)CC[C@@H]1[C@H]2CN[C@@]3(C(=O)NCC(C)C)[C@@H](C2)CN(CCO)[C@@H]13 [IB-372] | 10 to 30 µM | 
CC(C)C[C@@H]1[C@@H]2CN[C@@]3(C(=O)NCc4ccccc4)[C@@H](C2)CN(CC(C)C)[C@@H]13 (relative stereo) [IB-5] | 10 to 30 µM | 18.2 µM
O=C(NCc1ccc(F)cc1)[C@@]12C[C@@H]3CN(Cc4ccccc4)[C@@H]([C@@H]3CN1)[C@H]2Cc1ccccc1 (relative stereo) [IF-561] | < 5 µM | 
O=C(NCCO)[C@]12NC[C@H]3C[C@H]1CN(Cc1ccccc1)[C@H]2[C@@H]3Cc1cccc2ccccc12 [IB-602] | 10 to 30 µM | 
O=C(NCc1ccc(F)cc1)[C@]12NC[C@H]3C[C@H]1CN(CCO)[C@H]2[C@@H]3Cc1ccccc1 [IB-479] | 10 to 30 µM | 
CC(C)CNC(=O)[C@@]12C[C@@H]3CN(CC(C)C)[C@@H]([C@@H]3CN1)[C@H]2Cc1cccc2ccccc12 [IF-680] | 10 to 30 µM | 
O=C(NCCc1ccccc1)[C@@]12C[C@@H]3CN(CC4CCCCC4)[C@@H]([C@@H]3CN1)[C@H]2Cc1cccc2ccccc12 [IF-718] | < 5 µM | 
CC(C)NC(=O)[C@@]12C[C@@H]3CN(Cc4ccc(O)cc4)[C@@H]([C@@H]3CN1)[C@H]2Cc1cccc2ccccc12 [IF-504] | 10 to 30 µM | 
O=C(NCCc1ccccc1)[C@@]12C[C@@H]3CN(CC4CCCCC4)[C@@H]([C@@H]3CN1)[C@H]2Cc1ccc(O)cc1 [IF-439] | < 5 µM | 
CC(C)CCN1C[C@H]2C[C@]3(C(=O)NCc4cccc5ccccc45)NC[C@H]2[C@H]1[C@H]3CC(C)C [IF-705] | < 5 µM | 
CC(C)CNC(=O)[C@@]12C[C@@H]3CN(Cc4ccc(F)cc4)[C@@H]([C@@H]3CN1)[C@H]2CC(C)C [IF-654] | < 5 µM | 
CC(C)CC[C@@H]1[C@@H]2[C@@H]3CN[C@@]1(C(=O)NCCO)C[C@@H]3CN2Cc1ccc(F)cc1 [IF-490] | 10 to 30 µM | 
CC(C)CNC(=O)[C@]12NC[C@H]3C[C@H]1CN(Cc1ccc(F)cc1)[C@H]2[C@@H]3Cc1ccc(O)cc1 [IB-631] | 10 to 30 µM | 
CC(C)C[C@@H]1[C@@H]2[C@@H]3CN[C@@]1(C(=O)NCCC(N)=O)C[C@@H]3CN2CCc1ccccc1 [IF-699] | 10 to 30 µM | 
CC(C)C[C@@H]1[C@H]2CN[C@@]3(C(=O)NCc4ccc(O)cc4)[C@@H](C2)CN(Cc2ccc(F)cc2)[C@@H]13 [IB-458] | 10 to 30 µM | 
Cc1ccc(CN2C[C@H]3C[C@@]4(C(=O)NCc5ccccc5)[C@H](CC(C)C)[C@@H]2[C@@H]3CN4C(=O)NCc2ccccc2)cc1 [IF-864] | 10 to 30 µM | 
NC(=O)CCNC(=O)[C@]12NC[C@H]3C[C@H]1CN(CC1CCCCC1)[C@H]2[C@@H]3CCc1ccccc1 [IB-710] | < 5 µM | 

Structure (SMILES) | IC50 (read-out: Anti-rabies activity) | IC50 (read-out: IC50)
CC(C)CC[C@@H]1[C@H]2CN[C@@]3(C(=O)NCCCNC(=N)N)[C@@H](C2)CN(CC2CCCCC2)[C@@H]13 [IB-361] | 10 to 30 µM | 
CC(C)CCN1C[C@@H]2C[C@@H]3CN[C@]2(C(=O)NCC(C)C)[C@@H]1[C@@H]3CC(C)C [IB-753] | < 5 µM | 
CC(C)C[C@@H]1[C@H]2CN[C@@]3(C(=O)NCc4ccccc4)[C@@H](C2)CN(Cc2ccc(N(C)C)cc2)[C@@H]13 [IB-873] | 5 to 10 µM | 
CC(C)CN1C[C@H]2C[C@]3(C(=O)NCc4cccc5ccccc45)NC[C@H]2[C@H]1[C@H]3Cc1cccc2ccccc12 [IF-778] | < 5 µM | 
CCCCCCNC(=O)[C@@]12C[C@@H]3CN(Cc4ccccc4)[C@@H]([C@@H]3CN1)[C@H]2CCCNC(=N)N [IF-285] | 10 to 30 µM | 
CC(C)C[C@@H]1[C@@H]2[C@@H]3CN[C@@]1(C(=O)NCc1cccc(O)c1)C[C@@H]3CN2Cc1ccc(N(C)C)cc1 [IF-866] | 10 to 30 µM | 
O=C(NCCO)[C@@]12C[C@@H]3CN(Cc4ccccc4)[C@@H]([C@@H]3CN1)[C@H]2Cc1cccc2ccccc12 [IF-624] | 10 to 30 µM | 
N=C(N)NCCCNC(=O)[C@]12NC[C@H]3C[C@H]1CN(Cc1ccccc1)[C@H]2[C@@H]3Cc1cccc2ccccc12 [IB-280] | 10 to 30 µM | 
CCCCCCNC(=O)[C@]12NC[C@H]3C[C@H]1CN(CCc1ccccc1)[C@H]2[C@@H]3CCCNC(=N)N [IB-256] | 10 to 30 µM | 
NC(=O)CN1C[C@H]2C[C@]3(C(=O)NCc4ccc(F)cc4)NC[C@H]2[C@H]1[C@H]3Cc1cccc2ccccc12 [IF-97] | 10 to 30 µM | 
N=C(N)NCCCNC(=O)[C@@]12C[C@@H]3CN(Cc4cccc5ccccc45)[C@@H]([C@@H]3CN1)[C@H]2Cc1cccc2ccccc12 [IF-390] | 10 to 30 µM | 
CC(C)CCNC(=O)[C@@]12C[C@@H]3CN(CCc4ccccc4)[C@@H]([C@@H]3CN1)[C@H]2CC(C)C [IF-657] | < 5 µM | 
CC(C)CCN1CC2CC3(C(=O)NCc4ccc(Cl)cc4)N=CC2C1C3CC(C)C (centres unmarked) [IIF-103] | 5 to 10 µM | 
NC(=O)CN1C[C@@H]2C[C@@H]3CN[C@]2(C(=O)NCc2cccc4ccccc24)[C@@H]1[C@@H]3Cc1cccc2ccccc12 [IB-90] | < 5 µM | 
CC(C)C[C@@H]1[C@H]2CN[C@@]3(C(=O)NCc4ccc(O)cc4)[C@@H](C2)CN(Cc2ccccc2)[C@@H]13 [IB-464] | < 5 µM | 
CC(C)CCNC(=O)[C@@]12C[C@@H]3CN(CCO)[C@@H]([C@@H]3CN1)[C@H]2Cc1cccc2ccccc12 [IF-660] | 10 to 30 µM | 
CC(C)CCN1C[C@H]2C[C@]3(C(=O)NCc4cccc5ccccc45)NC[C@H]2[C@H]1[C@H]3Cc1ccc(O)cc1 [IF-706] | < 5 µM | 
CC(C)C[C@@H]1[C@@H]2CN[C@@]3(C(=O)NCc4cccc5ccccc45)[C@@H](C2)CN(CCCNC(=N)N)[C@@H]13 (relative stereo) [IB-164, (3S*,3aS*,6R*,7R*,7aS*)-1-(3-guanidinopropyl)-7-isobutyl-N-(naphthalen-1-ylmethyl)octahydro-3aH-3,6-methanopyrrolo[3,2-b]pyridine-3a-carboxamide] | < 5 µM | 
CCCCCCNC(=O)[C@@]12C[C@@H]3CN(CC4CCCCC4)[C@@H]([C@@H]3CN1)[C@H]2CCCNC(=N)N [IF-260] | 10 to 30 µM | 
CC(C)CC1C2C3C=NC1(C(=O)NCc1ccccc1)CC3CN2Cc1ccc(N(C)C)cc1 (centres unmarked) [IIF-94] | 5 to 10 µM | 
NC(=O)CCNC(=O)[C@]12NC[C@H]3C[C@H]1CN(Cc1ccc(F)cc1)[C@H]2[C@@H]3Cc1ccccc1 [IB-712] | < 5 µM | 
NC(=O)CN1C[C@@H]2C[C@@H]3CN[C@]2(C(=O)NCc2cccc4ccccc24)[C@@H]1[C@@H]3Cc1ccccc1 (relative stereo) [IB-82] | 10 to 30 µM | 

Structure (SMILES) | IC50 (read-out: Anti-rabies activity) | IC50 (read-out: IC50)
O=C(NCc1ccc(F)cc1)[C@@]12C[C@@H]3CN(CCO)[C@@H]([C@@H]3CN1)[C@H]2Cc1ccccc1 (relative stereo) [IF-508] | 10 to 30 µM | 
Cc1ccc(CN2C[C@H]3C[C@]4(C(=O)NCc5ccccc5)NC[C@H]3[C@H]2[C@H]4CC(C)C)cc1 [IF-842] | < 5 µM | 
O=C(NCc1ccccc1)[C@]12NC[C@H]3C[C@H]1CN(CCO)[C@H]2[C@@H]3Cc1ccccc1 [IB-619] | 10 to 30 µM | 
CC(C)CC1C2CNC3(C(=O)NCc4cccc5ccccc45)C(C2)CN(Cc2ccc(O)cc2)C13 (centres unmarked) [IB-541] | < 5 µM | 
CC(C)CC[C@@H]1[C@H]2CN[C@@]3(C(=O)NC(C)C)[C@@H](C2)CN(Cc2ccc(O)cc2)[C@@H]13 [IB-501] | < 5 µM | 
NC(=O)CCNC(=O)C12NCC3CC1CN(Cc1ccccc1)C2C3CCc1ccccc1 (centres unmarked) [IB-535] | 10 to 30 µM | 
CC(C)C[C@@H]1[C@@H]2[C@@H]3CN[C@@]1(C(=O)NCc1ccccc1)C[C@@H]3CN2Cc1ccccc1 (relative stereo) [IF-7] | 5 to 10 µM | 8.5 µM
CC(C)CCN1C[C@@H]2C[C@@H]3CN[C@]2(C(=O)NCc2ccc(F)cc2)[C@@H]1[C@@H]3Cc1ccc(O)cc1 [IB-481] | < 5 µM | 
N=C(N)NCCC[C@@H]1[C@H]2CN[C@@]3(C(=O)NCc4ccccc4)[C@@H](C2)CN(Cc2ccc(F)cc2)[C@@H]13 [IB-260] | 10 to 30 µM | 
CC(C)CNC(=O)[C@@]12C[C@@H]3CN(CC4CCCCC4)[C@@H]([C@@H]3CN1)[C@H]2CC(C)C [IF-742] | 10 to 30 µM | 
CC(C)C[C@@H]1[C@H]2CN[C@@]3(C(=O)NCc4ccc(Cl)cc4)[C@@H](C2)CN(CC(C)C)[C@@H]13 [IB-871] | 10 to 30 µM | 
NC(=O)CCNC(=O)C12NCC3CC1CN(Cc1ccc(F)cc1)C2C3Cc1cccc2ccccc12 (centres unmarked) [IB-525] | 10 to 30 µM | 
CC(C)C[C@@H]1[C@@H]2[C@@H]3CN[C@@]1(C(=O)NCc1ccc(O)cc1)C[C@@H]3CN2CC1CCCCC1 [IF-478] | < 5 µM | 
CC(C)C[C@@H]1[C@H]2CN[C@@]3(C(=O)NCCc4ccccc4)[C@@H](C2)CN(Cc2ccc(F)cc2)[C@@H]13 [IB-725] | < 5 µM | 
CCOc1ccc(CN2CC3CC4(C(=O)NCc5ccccc5)N=CC3C2C4CC(C)C)cc1 (centres unmarked) [IIF-97] | 10 to 30 µM | 
CC(C)CC[C@@H]1[C@@H]2[C@@H]3CN[C@@]1(C(=O)NCc1ccc(F)cc1)C[C@@H]3CN2CC(N)=O (relative stereo) [IF-95] | 10 to 30 µM | 
CC(C)CNC(=O)[C@]12NC[C@H]3C[C@H]1CN(CC1CCCCC1)[C@H]2[C@@H]3Cc1ccc(O)cc1 [IB-770] | 10 to 30 µM | 
O=C(NCc1ccccc1)[C@]12NC[C@H]3C[C@H]1CN(Cc1ccc(F)cc1)[C@H]2[C@@H]3Cc1ccccc1 [IB-772] | < 5 µM | 
NC(=O)CCNC(=O)[C@]12NC[C@H]3C[C@H]1CN(Cc1ccc(O)cc1)[C@H]2[C@@H]3Cc1cccc2ccccc12 [IB-743] | < 5 µM | 
CC(C)C[C@@H]1[C@H]2CN[C@@]3(C(=O)NCCc4ccccc4)[C@@H](C2)CN(CC(N)=O)[C@@H]13 [IB-86] | 10 to 30 µM | 
O=C(NCc1ccc(F)cc1)C12NCC3CC1CN(CCO)C2C3Cc1ccc(O)cc1 (centres unmarked) [IB-549] | 10 to 30 µM | 
CC(C)CC[C@@H]1[C@H]2CN[C@@]3(C(=O)NCCO)[C@@H](C2)CN(Cc2ccccc2)[C@@H]13 [IB-680] | 10 to 30 µM | 
